Like-named read-outs stand apart in the source and are kept apart here.
What was measured:
PDE type III = molecular target: T1, PDE type III (Canis lupus familiaris, UniProt A0A8I3NYE0); experiment: PDE Inhibiting Activity, type III; type: biochemical, dog (canine aorta)
T1 construct: PDE was purified from the aorta in a dog; from tissue; host or cells: dog aorta
T1 sequence (A0A8I3NYE0 1-1135): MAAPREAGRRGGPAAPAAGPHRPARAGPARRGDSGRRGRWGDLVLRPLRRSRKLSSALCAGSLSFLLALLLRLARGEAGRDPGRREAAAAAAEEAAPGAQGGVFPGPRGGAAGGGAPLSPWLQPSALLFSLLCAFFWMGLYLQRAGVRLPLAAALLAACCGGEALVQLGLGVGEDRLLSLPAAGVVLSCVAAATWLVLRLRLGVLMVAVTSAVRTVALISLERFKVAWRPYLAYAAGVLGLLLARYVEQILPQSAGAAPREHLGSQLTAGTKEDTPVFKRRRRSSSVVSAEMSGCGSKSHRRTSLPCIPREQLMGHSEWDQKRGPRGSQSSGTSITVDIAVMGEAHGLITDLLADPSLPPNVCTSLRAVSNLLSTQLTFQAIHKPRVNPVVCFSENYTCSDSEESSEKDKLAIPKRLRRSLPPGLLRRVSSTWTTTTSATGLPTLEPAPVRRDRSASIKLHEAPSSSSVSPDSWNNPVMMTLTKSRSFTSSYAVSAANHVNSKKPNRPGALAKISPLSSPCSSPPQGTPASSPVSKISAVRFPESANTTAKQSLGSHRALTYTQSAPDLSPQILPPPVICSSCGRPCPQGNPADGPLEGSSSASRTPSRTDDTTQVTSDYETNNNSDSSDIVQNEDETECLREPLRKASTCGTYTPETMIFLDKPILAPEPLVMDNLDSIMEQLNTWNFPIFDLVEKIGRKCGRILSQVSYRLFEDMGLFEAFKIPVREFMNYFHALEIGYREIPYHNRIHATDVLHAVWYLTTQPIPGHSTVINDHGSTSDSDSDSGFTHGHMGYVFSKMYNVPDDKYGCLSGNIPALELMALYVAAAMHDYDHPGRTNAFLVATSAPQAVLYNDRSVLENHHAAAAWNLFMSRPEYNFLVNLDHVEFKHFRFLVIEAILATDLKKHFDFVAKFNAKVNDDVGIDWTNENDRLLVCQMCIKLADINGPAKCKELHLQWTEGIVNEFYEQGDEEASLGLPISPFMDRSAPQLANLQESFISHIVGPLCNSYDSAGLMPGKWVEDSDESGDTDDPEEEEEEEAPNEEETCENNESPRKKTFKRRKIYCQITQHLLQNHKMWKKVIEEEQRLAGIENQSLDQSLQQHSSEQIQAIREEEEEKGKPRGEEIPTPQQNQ
Protocol: (§1) On the basis of the method of Lugnier et al. (Biochem. Pharmacol., 35, 1743-1751, 1986), PDE was purified from the aorta in a dog. The canine aorta was minced and homogenized with a Waring Blender and a glass homogenizer in six volumes of a Tris-HCl buffer solution (pH 7.5, 20 mM) containing 2 mM magnesium acetate, 5 mM ethylenediaminetetraacetic acid (EDTA), 100 μg/mL of phenylmethylsulforyl fluoride and 15 mM 2-mercaptoethanol (2-ME), and centrifuged at 1200 xg for 30 min. The supernatant was separated and salted out with ammonium sulfate which was added to 45% saturation. The resulting precipitated fraction was resuspended in a Tris-HCl buffer solution (pH 7.5, 20 mM) containing 2 mM magnesium acetate and 1 mM 2-ME, dialyzed overnight and applied to a DEAE-trisacryl column (DEAE […] M:IBF). By elution with a sodium chloride gradient (0-0.4 M), PDE types V and III were separated from the other isozymes. The supernatant fraction of 45% saturated ammonium sulfate was further mixed with ammonium sulfate to 65% saturation and salted out. The resulting precipitated fraction was similarly applied to the DEAE-trisacryl column and eluted by a sodium chloride gradient (0-0.4 M) so as to separate PDE type I.
(§2) The thus obtained PDE types V, III and I were measured for their activity in accordance with the method of Thompson et al. (Adv. Cyclic Nucleotide Res., 10, 69-72, 1979) and the method of Wells et al. (Biochim. Biophys. Acta, 384, 430-443, 1975). Specifically, a purified PDE sample was added to 50 mM Tris-HCl buffer solution (pH 7.5) containing 1 μM of substrate cGMP or cAMP (containing tritium-labelled cGMP or cAMP), 1 mM EGTA and 2 mM magnesium acetate. For PDE activity measurement, enzymatically produced 5' GMP or 5' AMP was further hydrolyzed into guanosine or adenosine with snake venom and separated from the substrate by means of an ion-exchange resin (Dowex 1-X2), followed by measuring with a scintillation counter. The activity of each test compound was determined as a percentage of the DPE activity measured when it was added as a dimethyl sulfoxide solution (DMSO) and its IC50 (50% inhibition concentration) was calculated by the probit method. The final concentration of DMSO was adjusted to be no more than 2% in consideration of the effect on PDE activity.

PDE type I = experiment: PDE Inhibiting Activity, type I; type: biochemical, dog (canine aorta); conditions: PDE type I from canine aorta, 1 μM substrate, pH 7.5; read-out: Inhibition Activity IC50, Type I
Protocol: as §1, §2

[1] = system: pulmonary arterial pressure; experiment: Pulmonary Arterial Pressure Lowering Action in anesthetized dogs; type: in vivo, adult mongrel dogs; conditions: anesthetized dogs
Protocol: (§3) Adult mongrel dogs were anesthetized by intramuscular administration of 20 mg/kg of ketamine and intravenous administration of 20 mL/kg of physiological saline containing 5 mg/mL of α-chloralose; under artificial respiration, the aortic pressure was measured with a catheter inserted into the femoral artery and the pulmonary arterial pressure with a Swan-Ganz catheter inserted into the pulmonary artery. Anesthesia was maintained by intravenous administration of physiological saline containing 5 mg/mL of α-chloralose at a rate of 5 mL/kg per hour. Comparison was made between nitroglycerin, nifedipine and test compounds which were administered intravenously at doses of 0.01-1 mg/kg. Each test compound was dissolved in dimethylformamide (DMF) and sequentially diluted with polyethylene glycol 200 and water to give respective proportions of 20, 50 and 30% (v/v) and administrated by injection into the right femoral vein in a volume of 0.3 mL/kg. The results are shown in Table 2 below, in which maximal percent decreases in the pulmonary arterial pressure and aortic pressure are listed to show the effectiveness of each test compound in lowering the pulmonary arterial pressure and the systemic blood pressure, respectively.

systemic blood pressure = experiment: Systemic blood (aortic) pressure lowering in anesthetized dogs; type: in vivo, adult mongrel dogs
Protocol: as §3

[2] = PDE type III from canine aorta, 1 μM substrate, pH 7.5, read-out: Inhibition Activity IC50, Type III
[3] = Canis lupus familiaris, iv, 0.3 mg/kg intravenous, maximal percent decrease, read-out: Reduction in pulmonary arterial pressure
[4] = Canis lupus familiaris, iv, 0.3 mg/kg intravenous, anesthetized dogs, maximal percent decrease, read-out: Reduction in systemic blood pressure

| Structure (SMILES) | IC50 (PDE type III; [2]) [µM] | IC50 (PDE type I) [µM] | inhibition in vivo at 0.3 mg/kg [1, 3] [%] | inhibition in vivo at 0.3 mg/kg (systemic blood pressure; [4]) [%] | other results |
| --- | --- | --- | --- | --- | --- |
| O=c1c(Cc2cccnc2)cn2c3cc(Br)ccc3c3cc(OCCCO)cc1c32 [Example 110, 9-bromo-2-(3-hydroxypropyloxy)-5-(3-pyridylmethyl)-4H-pyrido [3,2,1-jk]carbazole-4-one] | 10 | > 30 | 23 | 7 | – |
| CC(C)(C)OC(=O)COc1cc2c(=O)ccn3c4ccc(Br)cc4c(c1)c23 [Example 60, 10-bromo-2-t-butoxycarbonylmethyloxy-4H-pyrido [3,2,1-jk]carbazole-4-one] | 15 | > 30 | 20 | 8 | – |
| O=c1c(Cc2cccnc2)cn2c3cc(C(F)(F)F)ccc3c3cc(OCCCO)cc1c32 [Example 291, 2-(3-hydroxypropyloxy)-5-(3-pyridylmethyl)-9-trifluoromethyl-4H-pyrido[3,2,1-jk]carbazole-4-one methanesulfonate] | – | – | 13 | 4 | – |
| COC(=O)C1=C(C)NC(C)=C(C(=O)OC)C1c1ccccc1[N+](=O)[O-] [Nifedipine, nifedipine, reference compound] | – | – | – | – | inhibition in vivo at 0.01 mg/kg ([1]; Canis lupus familiaris, iv, 0.01 mg/kg intravenous, maximal percent decrease, read-out: Reduction in pulmonary arterial pressure): 3%; pulmonary arterial versus systemic blood pressure lowering (in words) ([1]; intravenous): lowered the systemic blood pressure by greater degrees than the pulmonary arterial pressure; inhibition in vivo at 0.01 mg/kg (systemic blood pressure; Canis lupus familiaris, iv, read-out: Reduction in systemic blood pressure): 18% |
| O=c1c(Cc2cccnc2)cn2c3cc(Br)ccc3c3cc(OCc4cccnc4)cc1c32 [Example 105, 9-bromo-5-(3-pyridylmethyl)-2-(3-pyridylmethyloxy)-4H-pyrido [3,2,1-jk]carbazole-4-one] | 2.4 | > 30 | – | – | inhibition in vivo at 0.1 mg/kg ([1]; Canis lupus familiaris, iv, 0.1 mg/kg intravenous, maximal percent decrease, read-out: Reduction in pulmonary arterial pressure): 16%; inhibition in vivo at 0.1 mg/kg (systemic blood pressure; Canis lupus familiaris, iv, 0.1 mg/kg intravenous, anesthetized dogs, maximal percent decrease, read-out: Reduction in systemic blood pressure): 12% |
| CCNC(=O)COc1cc2c(=O)c(Cc3cccnc3)cn3c4cc(Br)ccc4c(c1)c23 [Example 109, 9-bromo-2-(N-ethylcarbamoylmethyloxy)-5-(3-pyridylmethyl)-4H-pyrido [3,2,1-jk]carbazole-4-one] | – | > 30 | 19 | 11 | IC50 (PDE type III): 14 µM |
| CS(=O)(=O)O.O=c1c(Cc2cccnc2)cn2c3cc(Br)ccc3c3cc(OCCCO)cc1c32 [Example 279, 9-bromo-2-(3-hydroxypropyloxy)-5-(3-pyridylmethyl)-4H-pyrido[3,2,1-jk]carbazole-4-one methanesulfonate] | – | – | – | – | Reduction in pulmonary arterial pressure ([1]; 0.3 mg/kg intravenous, maximal percent decrease): 17%; Reduction in systemic blood pressure (systemic blood pressure; 0.3 mg/kg intravenous, anesthetized dogs, maximal percent decrease): 4% |
| O=c1c(Cc2cccnc2)cn2c3cc(Cl)ccc3c3cc(OCCCO)cc1c32 [Example 285, 9-chloro-2-(3-hydroxypropyloxy)-5-(3-pyridylmethyl)-4H-pyrido[3,2,1-jk]carbazole-4-one methanesulfonate] | – | – | 16 | 2 | – |
| O=c1c(Cc2cccnc2)cn2c3cc(Cl)ccc3c3cc(OCCCO)cc1c32 [Example 283, 9-chloro-2-(3-hydroxypropyloxy)-5-(3-pyridylmethyl)-4H-pyrido[3,2,1-jk]carbazole-4-one] | 3.6 | > 30 | – | – | – |
| O=c1c(Cc2cccnc2)cn2c3ccc(Br)cc3c3cc(OCc4ccccc4)cc1c32 [Example 22, 2-benzyloxy-10-bromo-5-(3-pyridylmethyl)-4H-pyrido [3,2,1-jk]carbazole-4-one] | 11 | > 30 | – | – | – |
| CCOC(=O)COc1cc2c(=O)ccn3c4ccc(Br)cc4c(c1)c23 [Example 62, 10-bromo-2-ethoxycarbonylmethyloxy-4H-pyrido [3,2,1-jk]carbazole-4-one] | > 30 | > 30 | – | – | – |
| COc1cc2c(=O)c(Cc3cccnc3)cn3c4cc(Br)ccc4c(c1)c23 [Example 101, 9-bromo-2-methoxy-5-(3-pyridylmethyl)-4H-pyrido [3,2,1-jk]carbazole-4-one] | > 30 | > 30 | – | – | – |

Source: patent publication US6197768A, “Pyridocarbazole derivatives having cgmp-pde inhibitory activity” (Mochida Pharmaceutical Co., Ltd., priority 1996, dated 2001)
